Measurements from US20120165403A1, “METHODS OF INHIBITING THE ACTIVITY OF HSP90 AND/OR ARYL HYDROCARBON RECEPTOR” (UNIVERSITY OF ROCHESTER, priority 2004, published 2012).

Assays:
[1] = tested on: TCDD-mediated CYP1A1 gene induction; assay: CYP1A1 gene induction in HepG2 cells; type: cell-based, human
AhR/Arnt complex = target: T1, AhR/Arnt complex (Mus musculus, UniProt P30561); assay: AhR/Arnt complex formation by immunoprecipitation in RRL; type: biochemical, murine; conditions: 200 μm EGCG, with or without 1 nM TCDD, anti-AhR immunoprecipitation
T1 construct: made in house; host or cells: TNT rabbit reticulocyte lysate
T1 sequence (P30561 10-805 limits assumed): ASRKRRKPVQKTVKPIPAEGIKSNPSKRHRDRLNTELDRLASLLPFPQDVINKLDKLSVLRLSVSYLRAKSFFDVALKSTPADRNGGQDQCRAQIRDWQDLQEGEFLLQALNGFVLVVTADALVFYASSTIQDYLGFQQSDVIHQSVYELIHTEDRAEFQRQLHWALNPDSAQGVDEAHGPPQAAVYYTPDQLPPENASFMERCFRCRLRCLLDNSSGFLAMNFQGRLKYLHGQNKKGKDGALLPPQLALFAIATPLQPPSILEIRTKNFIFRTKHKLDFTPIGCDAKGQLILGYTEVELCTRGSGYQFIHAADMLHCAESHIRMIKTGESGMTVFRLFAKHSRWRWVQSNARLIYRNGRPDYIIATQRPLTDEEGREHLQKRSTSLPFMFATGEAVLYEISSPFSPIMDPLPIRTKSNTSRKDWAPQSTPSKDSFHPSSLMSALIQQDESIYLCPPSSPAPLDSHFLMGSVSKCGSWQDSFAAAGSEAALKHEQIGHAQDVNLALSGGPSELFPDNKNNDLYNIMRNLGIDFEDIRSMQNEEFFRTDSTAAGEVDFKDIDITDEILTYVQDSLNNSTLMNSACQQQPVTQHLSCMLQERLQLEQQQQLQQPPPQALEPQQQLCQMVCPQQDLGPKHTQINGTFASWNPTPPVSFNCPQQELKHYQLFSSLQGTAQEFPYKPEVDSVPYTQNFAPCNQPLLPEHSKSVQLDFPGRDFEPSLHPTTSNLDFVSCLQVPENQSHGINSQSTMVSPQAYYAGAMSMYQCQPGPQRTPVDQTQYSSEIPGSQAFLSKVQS
Text: Murine AhR and ARNT cDNA (obtained from J. Whitlock and O. Hankinson, respectively) were inserted into pcDNA3 (Invitrogen, Carlsbad, Calif.). Chicken hsp90 constructs (FIG. 5), c90711hsp (wild-type), c90G94D (wild-type point mutant gly94→Asp (Grenert et al., J. Biol. Chem. 272:23843-23850 (1997), which is hereby incorporated by reference in its entirety), c90D92A (wild-type point mutant Asp92→Ala (Sullivan et al., J. Biol. Chem. 268:20373-20379 (1993), which is hereby incorporated by reference in its entirety), c90N221 (wild-type truncation mutant encoding a.a. 221-728 (Sullivan et al., J. Biol. Chem. 268:20373-20379 (1993), which is hereby incorporated by reference in its entirety)), c90N303 (a.a. 303-728) and c90N538 (a.a. 538-728) were kind gifts from Dr. D. Toft (Rochester, Minn.). The C-terminal truncation mutant c900507 (a.a. 1-221) was obtained from Dr. L. Neckers (Rockville, Md.) (Grenert et al., J. Biol. Chem. 272:23843-23850 (1997); Marcu et al., J. Biol. Chem. 275:37181-37186 (2000), which are hereby incorporated by reference in their entirety). Human p23 cDNA was excised from pQE80-p23 (obtained from W. Chan Stockton, Calif.) by sequential digests using the restriction enzymes Sad (3′-end) and BamHI (5′-end) and inserted into the similarly digested pET28a (Novagen, Madison, Wis.). […]

O=C(O[C@@H]1Cc2c(O)cc(O)cc2O[C@@H]1c1cc(O)c(O)c(O)c1)c1cc(O)c(O)c(O)c1 [EGCG, epigallocatechin gallate]
inhibition of TCDD-mediated CYP1A1 gene induction [1]: inhibited TCDD-mediated CYP1A1 gene induction
effect on AhR/Arnt complex formation (AhR/Arnt complex): disrupting AhR/Arnt complex formation
